Assay results taken from the supplement of paper PMC10307832.

How the values were obtained:
Experiment in all cases: relative viability (nuclei count vs DMSO), 5 days (fraction); higher = more cells survive
NCI-H596 = system: NCI-H596
Outline: (§1)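 Lung cancer cell lines, seeded in 1536-well plates, were treated the following day by pin tool with a single drug or with five library-drug doses (not always all listed) in √10 steps on top of a fixed anchor-drug dose. Cells were fixed and nuclei stained in one step after 5 days, and nuclei were counted. Relative viability is the nuclei count for treated wells divided by that for vehicle wells, reported as medians of duplicate plates.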

NCI-H520 = system: NCI-H520
Outline: as §1

NCI-H650 = system: NCI-H650
Outline: as §1

A-427 = system: A-427
Outline: as §1

H3255 = system: H3255
Outline: as §1

NCI-H2087 = system: NCI-H2087
Outline: as §1

NCI-H1650 = system: NCI-H1650
Outline: as §1

CAL-12T = system: CAL-12T
Outline: as §1

NCI-H2023 = system: NCI-H2023
Outline: as §1

LCLC-97TM1 = system: LCLC-97TM1
Outline: as §1

BEN = system: BEN
Outline: as §1

NCI-H1915 = system: NCI-H1915
Outline: as §1

201T = system: 201T
Outline: as §1

NCI-H441 = system: NCI-H441
Outline: as §1

LC-2-ad = system: LC-2-ad
Outline: as §1

NCI-H1944 = system: NCI-H1944
Outline: as §1

NCI-H460 = system: NCI-H460
Outline: as §1

NCI-H1651 = system: NCI-H1651
Outline: as §1

PC-3 [JPC-3] = system: PC-3 [JPC-3]
Outline: as §1

NCI-H661 = system: NCI-H661
Outline: as §1

Compound Cc1sc2c(c1C)C(c1ccc(Cl)cc1)=N[C@@H](CC(=O)OC(C)(C)C)c1nnc(C)n1-2 [JQ1] + Nc1nc2[nH]cc(CCc3ccc(C(=O)N[C@@H](CCC(=O)O)C(=O)O)cc3)c2c(=O)[nH]1 [Pemetrexed] (partner 0.2 µM) has a relative viability (NCI-H596; first compound 0.04 µM) of 0.491, a relative viability (NCI-H596; first compound 0.1265 µM) of 0.461 and a relative viability (NCI-H596; first compound 0.4 µM) of 0.386. For the same compound, the relative viability (NCI-H596; first compound 1.265 µM) was 0.335, the relative viability (NCI-H596; first compound 4 µM) was 0.367 and the relative viability (NCI-H520; first compound 0.04 µM) was 0.565. It also gave a relative viability (NCI-H520; first compound 0.1265 µM) of 0.536, a relative viability (NCI-H520; first compound 0.4 µM) of 0.491 and a relative viability (NCI-H520; first compound 1.265 µM) of 0.307. The relative viability (NCI-H520; first compound 4 µM) was 0.195, the relative viability (NCI-H650; first compound 0.04 µM) was 0.886 and the relative viability (NCI-H650; first compound 0.1265 µM) was 0.664. The relative viability (NCI-H650; first compound 0.4 µM) was 0.839, the relative viability (NCI-H650; first compound 1.265 µM) was 0.6 and the relative viability (NCI-H650; first compound 4 µM) was 0.276. It also gave a relative viability (A-427; first compound 0.04 µM) of 0.988, a relative viability (A-427; first compound 0.1265 µM) of 0.794 and a relative viability (A-427; first compound 0.4 µM) of 0.994. It also gave a relative viability (A-427; first compound 1.265 µM) of 0.914, a relative viability (A-427; first compound 4 µM) of 0.639 and a relative viability (H3255; first compound 0.04 µM) of 0.569. The relative viability (H3255; first compound 0.1265 µM) was 0.515, the relative viability (H3255; first compound 0.4 µM) was 0.453 and the relative viability (H3255; first compound 1.265 µM) was 0.364. The relative viability (H3255; first compound 4 µM) was 0.3, the relative viability (NCI-H2087; first compound 0.04 µM) was 0.621 and the relative viability (NCI-H2087; first compound 0.1265 µM) was 0.675. The relative viability (NCI-H2087; first compound 0.4 µM) was 0.692, the relative viability (NCI-H2087; first compound 1.265 µM) was 0.558 and the relative viability (NCI-H2087; first compound 4 µM) was 0.463. For the same compound, the relative viability (NCI-H1650; first compound 0.04 µM) was 0.365, the relative viability (NCI-H1650; first compound 0.1265 µM) was 0.293 and the relative viability (NCI-H1650; first compound 0.4 µM) was 0.335. It also gave a relative viability (NCI-H1650; first compound 1.265 µM) of 0.202, a relative viability (NCI-H1650; first compound 4 µM) of 0.183 and a relative viability (CAL-12T; first compound 0.04 µM) of 1.22. For the same compound, the relative viability (CAL-12T; first compound 0.1265 µM) was 1.18, the relative viability (CAL-12T; first compound 0.4 µM) was 1.08 and the relative viability (CAL-12T; first compound 1.265 µM) was 0.465. The relative viability (CAL-12T; first compound 4 µM) was 0.249, the relative viability (NCI-H2023; first compound 0.04 µM) was 0.231 and the relative viability (NCI-H2023; first compound 0.1265 µM) was 0.195. The relative viability (NCI-H2023; first compound 0.4 µM) was 0.139, the relative viability (NCI-H2023; first compound 1.265 µM) was 0.101 and the relative viability (NCI-H2023; first compound 4 µM) was 0.109. For the same compound, the relative viability (LCLC-97TM1; first compound 0.04 µM) was 0.168, the relative viability (LCLC-97TM1; first compound 0.1265 µM) was 0.199 and the relative viability (LCLC-97TM1; first compound 0.4 µM) was 0.172. The relative viability (LCLC-97TM1; first compound 1.265 µM) was 0.141, the relative viability (LCLC-97TM1; first compound 4 µM) was 0.0882 and the relative viability (BEN; first compound 0.04 µM) was 0.7. The relative viability (BEN; first compound 0.1265 µM) was 0.523, the relative viability (BEN; first compound 0.4 µM) was 0.67 and the relative viability (BEN; first compound 1.265 µM) was 0.518. The relative viability (BEN; first compound 4 µM) was 0.384, the relative viability (NCI-H1915; first compound 0.04 µM) was 0.46 and the relative viability (NCI-H1915; first compound 0.4 µM) was 0.323. For the same compound, the relative viability (NCI-H1915; first compound 1.265 µM) was 0.295, the relative viability (NCI-H1915; first compound 4 µM) was 0.167 and the relative viability (201T; first compound 0.04 µM) was 0.325. The relative viability (201T; first compound 0.4 µM) was 0.293, the relative viability (201T; first compound 1.265 µM) was 0.274 and the relative viability (201T; first compound 4 µM) was 0.23. For the same compound, the relative viability (NCI-H441; first compound 0.04 µM) was 0.271, the relative viability (NCI-H441; first compound 0.1265 µM) was 0.263 and the relative viability (NCI-H441; first compound 0.4 µM) was 0.273. It also gave a relative viability (NCI-H441; first compound 1.265 µM) of 0.213, a relative viability (NCI-H441; first compound 4 µM) of 0.186 and a relative viability (LC-2-ad; first compound 0.04 µM) of 0.268. It also gave a relative viability (LC-2-ad; first compound 0.1265 µM) of 0.258, a relative viability (LC-2-ad; first compound 0.4 µM) of 0.244 and a relative viability (LC-2-ad; first compound 1.265 µM) of 0.256. The relative viability (LC-2-ad; first compound 4 µM) was 0.209, the relative viability (NCI-H1944; first compound 0.04 µM) was 0.74 and the relative viability (NCI-H1944; first compound 0.1265 µM) was 0.565. The relative viability (NCI-H1944; first compound 0.4 µM) was 0.466, the relative viability (NCI-H1944; first compound 1.265 µM) was 0.446 and the relative viability (NCI-H1944; first compound 4 µM) was 0.438. The relative viability (NCI-H460; first compound 0.04 µM) was 0.0603, the relative viability (NCI-H460; first compound 0.1265 µM) was 0.0567 and the relative viability (NCI-H460; first compound 0.4 µM) was 0.0624. For the same compound, the relative viability (NCI-H460; first compound 1.265 µM) was 0.0611, the relative viability (NCI-H460; first compound 4 µM) was 0.07 and the relative viability (NCI-H1651; first compound 0.04 µM) was 0.589. The relative viability (NCI-H1651; first compound 0.1265 µM) was 0.45, the relative viability (NCI-H1651; first compound 0.4 µM) was 0.391 and the relative viability (NCI-H1651; first compound 1.265 µM) was 0.458. It also gave a relative viability (NCI-H1651; first compound 4 µM) of 0.358, a relative viability (PC-3 [JPC-3]; first compound 0.04 µM) of 1.16 and a relative viability (PC-3 [JPC-3]; first compound 0.1265 µM) of 1.12. It also gave a relative viability (PC-3 [JPC-3]; first compound 0.4 µM) of 0.818, a relative viability (PC-3 [JPC-3]; first compound 1.265 µM) of 0.751 and a relative viability (PC-3 [JPC-3]; first compound 4 µM) of 0.374. For the same compound, the relative viability (NCI-H661; first compound 0.04 µM) was 0.914, the relative viability (NCI-H661; first compound 0.1265 µM) was 0.876 and the relative viability (NCI-H661; first compound 0.4 µM) was 0.916. For the same compound, the relative viability (NCI-H661; first compound 1.265 µM) was 0.482 and the relative viability (NCI-H661; first compound 4 µM) was 0.423.
